Here are results for one compound from BindingDB's records for doi:10.1021/acs.jmedchem.7b01322 (National Health Research Institutes, 2018).

The assay is described as follows: Antagonist activity at CXCR4 in human CCRF-CEM cells assessed as inhibition of CXCL12-induced CXCR4+ cell migration pre-incubated for 10 mins before CXCL12 addition and measured after 2.5 hrs by flow cytometric analysis.

In the case of `Cc1cc(NC2CCN(C(=O)CCNCC(=O)O)CC2)nc(NCc2cn(CCCNCCCNC3CCCCC3)nn2)n1`, the EC50 – broadly, the midpoint of the concentration-response curve – is 14 nM.
